Assay results: patent US7579353B2, “Pyridinone derivatives against malaria” (Glaxo Group Limited, priority 2005, dated 2009)
≈ marks a conversion by molar mass, not a printed value. Read-outs that look alike come from different tables or passages of the source.

Tests used:
[1] = Compound solubility determination (gross and equilibrium solubility; FaSSIF, FeSSIF, pH 7.4 PBS, pH 1.0 0.1N HCl, pH 4.5 sodium citrate); assay type: physicochemical; settings: thermodynamic from solid
Experimental: Compound Solubility Determination
An amount of 3 mg solid compound with LC-MS purity ≧95% was required. This amount was split between 3 different glass vials (1.8 ml volume each), placing 1 mg compound into each one.
Organic solvents of HPLC grade were used. Ultra pure water (Milli-Q grade) was used. Buffers were prepared with ultra pure water and filtered using 0.45μ cameo filters. The compositions of each solvent employed in this assay are described below (part III).
2. Determination of Equilibrium Solubility (Assuming Chemical Stability in the Desired Solvent is not a Problem).
For each of the three vial samples prepared as described above, in which the amount of compound was totally dissolved, the following procedure was subsequently carried out: • a) A small amount (approx. 0.1 mg) of additional solid compound was added to the vial to maintain an excess of the compound in the mixture in the form of undissolved solid. • b) The samples were magnetically stirred for 24 hr. If required, additional solid compound (0.1 mg) was added to maintain excess of it and then the samples were stirred again. • c) Then the samples were filtered (Millipore Milex filters nylon 0.2 um) and three aliquots were taken (one from each of the three vials) and analysed by LC-MS. • d) The pH of the final solution in each sample was measured with a pH-meter (WTW pH330i and a pH-electrode Sentix 41).
3. LC-MS Assay for Analytical Quantification
All filtered aliquots were analysed by LC-MS. The analysis was carried out with a Luna 5 μC18 (2) column 4.6×150 mm, using a HP1100 HPLC instrument interfaced with a Waters ZMD-2000 MS spectrometer. The concentration of the final sample as prepared above was calculated from that of a reference calibration curve obtained from serial dilutions of a 2 mM solution of the compound under investigation in DMSO (Aldrich cat. ref.: 27685-5) stock solution.
The analysis of all LC-MS data was performed with MassLynx 3.4 software. Statistical and graphic analysis of data was performed using Microsoft Excel. The concentration (uM) and solubility (ug/ml) for each compound was calculated using the peak areas from the sample and those from the calibration curve.
A) FaSSIF is a solvent which simulates the Fasted State of the Intestinal Fluid. (FaSSIF: Fasted State Simulated Intestinal Fluid).
B) FeSSIF is a solvent which simulates the Fed State of the Intestinal Fluid. (FeSSIF: Fed State Simulated Intestinal Fluid).
C) Solubility at pH 7.4 was determined in phosphate buffered saline (PBS) (Fluka cat. ref: 79383)
D) Solubility at pH 1.0 was determined in 0.1N HCl solution (Scharlau AL0744010C)
E) Solubility at pH 4.5 was determined in sodium citrate 0.5M solution. (Aldrich 25, 127-5)

Plasmodium falciparum = test: In vitro anti-malarial activity against Plasmodium falciparum, IC50 assay / [3H]-hypoxanthine incorporation assay; assay type: cell-based; settings: Erythrocyte, parasitized red blood cells, 48 hours
[2] = 0.1N HCl solution, simulated gastric fluid, pH 1 (HCl), read-out: Solubility at pH 1 (HCl)
[3] = FaSSIF (fasted state simulated intestinal fluid), fassif, read-out: Solubility in FaSSIF
[4] = phosphate buffered saline (PBS), aqueous buffer, pH 7.4 (PBS), read-out: Solubility at pH 7.4 (PBS)
[5] = sodium citrate 0.5M solution, aqueous buffer, pH 4.5 (Na citrate), read-out: Solubility at pH 4.5 (Na citrate)
[6] = FeSSIF (fed state simulated intestinal fluid), fessif, read-out: Solubility in FeSSIF

Row | solubility at 24 h [1, 2] | solubility at 24 h [1, 3] | solubility at 24 h [1, 4] | solubility at 24 h [1, 5] | IC50 (Plasmodium falciparum) | solubility at 24 h [1, 6] | Compound | solubility at 24 h ([1]; aqueous buffer, pH 4.5 (Na citrate), read-out: Solubility at pH 4.5 (Na citrate)) | solubility at 24 h ([1]; aqueous buffer, pH 7.4 (PBS), read-out: Solubility at pH 7.4 (PBS)) | solubility at 24 h ([1]; fassif, read-out: Solubility in FaSSIF) | solubility at 24 h ([1]; fessif, read-out: Solubility in FeSSIF) | solubility at 24 h ([1]; simulated gastric fluid, pH 1 (HCl), read-out: Solubility at pH 1 (HCl))
1 | ≥ 50 µg/mL | 10 to 50 µg/mL (≈ 24.6 to 123 µM) | 1 to 5 µg/mL (≈ 2.46 to 12.3 µM) | 10 to 50 µg/mL (≈ 24.6 to 123 µM) | < 0.125 µg/mL | – | Cc1[nH]c(C)c(-c2ccc(CCc3cccc(C(F)(F)F)c3)nc2)c(=O)c1Cl [Example 44, 5-Chloro-2,6-dimethyl-6′-{2-[3-(trifluoromethyl)phenyl]ethyl}-3,3′-bipyridin-4(1H)-one] | – | – | – | – | –
2 | ≥ 50 µg/mL | 10 to 50 µg/mL (≈ 24.6 to 123 µM) | 5 to 10 µg/mL (≈ 12.3 to 24.6 µM) | 10 to 50 µg/mL (≈ 24.6 to 123 µM) | < 0.125 µg/mL | – | Cc1[nH]c(C)c(-c2ccc(CCc3ccc(C(F)(F)F)cc3)nc2)c(=O)c1Cl [Example 45, 5-Chloro-2,6-dimethyl-6′-{2-[4-(trifluoromethyl)phenyl]ethyl}-3,3′-bipyridin-4(1H)-one] | – | – | – | – | –
3 | ≥ 50 µg/mL | 10 to 50 µg/mL | 1 to 5 µg/mL | ≥ 50 µg/mL | < 0.125 µg/mL | – | CCCCCCCc1ccc(-c2c(C)[nH]c(C)c(Cl)c2=O)cn1.Cl [Example 48, 5-Chloro-6′-(n-heptyl)-2,6-dimethyl-3,3′-bipyridin-4(1H)-one] | – | – | – | – | –
4 | 5 to 10 µg/mL (≈ 12.2 to 24.3 µM) | < 1 µg/mL | < 1 µg/mL | < 1 µg/mL | < 0.125 µg/mL | < 1 µg/mL | Cc1[nH]c(C)c(-c2ccc(Oc3ccc(OC(F)(F)F)cc3)nc2)c(=O)c1Cl [Example 49, 5-Chloro-2,6-dimethyl-6′-({4-[(trifluoromethyl)oxy]phenyl}oxy)-3,3′-bipyridin-4(1H)-one] | – | – | – | – | –
5 | 1 to 5 µg/mL (≈ 2.53 to 12.6 µM) | 1 to 5 µg/mL (≈ 2.53 to 12.6 µM) | < 1 µg/mL | < 1 µg/mL | < 0.125 µg/mL | 5 to 10 µg/mL (≈ 12.6 to 25.3 µM) | Cc1[nH]c(C)c(-c2cnc(-c3ccc(OC(F)(F)F)cc3)nc2)c(=O)c1Cl [Example 51, 3-Chloro-2,6-dimethyl-5-{2-[4-(trifluoromethyloxy)phenyl]-5-pyrimidinyl}-4(1H)-pyridinone] | – | – | – | – | –
6 | ≥ 50 µg/mL | 5 to 10 µg/mL (≈ 12.5 to 25 µM) | 1 to 5 µg/mL (≈ 2.5 to 12.5 µM) | 5 to 10 µg/mL (≈ 12.5 to 25 µM) | < 0.125 µg/mL | – | Cc1[nH]c(C)c(-c2ccc(-c3ccc4c(c3)OCO4)nc2)c(=O)c1Br [Example 53] | – | – | – | – | –
7 | ≥ 50 µg/mL | 1 to 5 µg/mL (≈ 2.52 to 12.6 µM) | < 1 µg/mL | < 1 µg/mL | < 0.125 µg/mL | 10 to 50 µg/mL (≈ 25.2 to 126 µM) | Cc1[nH]c(C)c(-c2ccc(-c3cc(C(F)(F)F)ccc3F)nc2)c(=O)c1Cl [Example 56, 5-chloro-6′-[2-fluoro-5-(trifluoromethyl)phenyl]-2,6-dimethyl-3,3′-bipyridin-4(1H)-one] | – | – | – | – | –
8 | ≥ 50 µg/mL | 5 to 10 µg/mL (≈ 12.1 to 24.2 µM) | < 1 µg/mL | < 1 µg/mL | < 0.125 µg/mL | 10 to 50 µg/mL (≈ 24.2 to 121 µM) | Cc1[nH]c(C)c(-c2ccc(-c3cc(C(F)(F)F)ccc3Cl)nc2)c(=O)c1Cl [Example 57, 5-chloro-6′-[2-chloro-5-(trifluoromethyl)phenyl]-2,6-dimethyl-3,3′-bipyridin-4(1H)-one] | – | – | – | – | –
9 | 10 to 50 µg/mL (≈ 25.2 to 126 µM) | < 1 µg/mL | < 1 µg/mL | < 1 µg/mL | < 0.125 µg/mL | 1 to 5 µg/mL (≈ 2.52 to 12.6 µM) | Cc1[nH]c(C)c(-c2ccc(-c3ccc(C(F)(F)F)cc3F)nc2)c(=O)c1Cl [Example 58, 5-chloro-6′-[2-fluoro-4-(trifluoromethyl)phenyl]-2,6-dimethyl-3,3′-bipyridin-4(1H)-one] | – | – | – | – | –

Row | Compound | solubility at 24 h [1, 2] | solubility at 24 h [1, 3] | solubility at 24 h [1, 4] | solubility at 24 h [1, 5] | IC50 (Plasmodium falciparum) | solubility at 24 h [1, 6] | solubility at 24 h ([1]; aqueous buffer, pH 4.5 (Na citrate), read-out: Solubility at pH 4.5 (Na citrate)) | solubility at 24 h ([1]; aqueous buffer, pH 7.4 (PBS), read-out: Solubility at pH 7.4 (PBS)) | solubility at 24 h ([1]; fassif, read-out: Solubility in FaSSIF) | solubility at 24 h ([1]; fessif, read-out: Solubility in FeSSIF) | solubility at 24 h ([1]; simulated gastric fluid, pH 1 (HCl), read-out: Solubility at pH 1 (HCl))
10 | CCCCCCCCCc1cnc(-c2c(C)[nH]c(C)c(Cl)c2=O)nc1 [Example 50, 3-Chloro-2,6-dimethyl-5-(5-nonyl-2-pyrimidinyl)-4(1H)-pyridinone] | – | – | – | – | < 0.125 µg/mL | – | < 1 µg/mL | < 1 µg/mL | < 1 µg/mL | 1 to 5 µg/mL (≈ 2.76 to 13.8 µM) | 5 to 10 µg/mL (≈ 13.8 to 27.6 µM)
